Test results reported in patent US20180243421A1, “IMMUNOSTIMULATING AGENT” (AJINOMOTO CO., INC., priority 2015, published 2018).

Assays:
[1] = tested on: anti-influenza IgA antibody; assay: Transnasal influenza vaccine adjuvant activity: anti-influenza IgA antibody in nasal cavity wash; format: in vivo, BALB/c mice; conditions: Example 4, influenza HA vaccine 20 μl, SZ62 1 μg, Poly(I:C) 5 μg, two weeks from secondary immunization
[2] = tested on: anti-OVA-specific IgG1 subclass antibody; assay: Adjuvant activity: anti-OVA-specific IgG1 subclass antibody in serum after secondary immunization (Examples 1, 5, 7, 8; ELISA absorbance); format: in vivo, BALB/c mice
Method in brief: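 Serum was taken two weeks after the secondary immunization and assayed by ELISA on plates coated with 5 μg/ml OVA. Detection used biotinylated anti-mouse IgG1, then anti-biotin-HRP and TMB. The reaction was stopped with 2N H2SO4 and read as absorbance at 450 nm.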

[3] = tested on: anti-OVA-specific IgE antibody; conditions: mouse, in vivo
Method in brief: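 Female BALB/c mice (8-week-old, N=6) were immunized dorsal-subcutaneously with OVA (5 or 10 μg) alone or with adjuvants (Alum, Addavax™, CpG 5 μg, MPL 5 μg, or test lipid 0.256 μmol in 5% αCD saline), boosted one week later. Serum anti-OVA IgE was measured by capture ELISA with HRP-labeled OVA, read at OD 450 nm against a standard curve.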

Row | SMILES | allergy inducing activity as compared to Addavax [3] | anti-OVA-specific IgE antibody production as compared to the OVA single administration group [3] | other results
1 | CCCCCCCCCCCCCCCC(=O)NC(=N)NCCCCN [SZ62, N-hexadecanoylagmatine] |  |  | anti-influenza IgA antibody production in nasal cavity wash as compared to the influenza vaccine single administration group [1]: significantly increased; anti-OVA-specific IgG1 subclass antibody production as compared to the OVA single administration group ([2]; Example 1, dorsal-subcutaneous, OVA 10 μg, SZ62 0.256 μmol in 5% αCD saline, Alum 2.56 μmol, serum two weeks from secondary immunization): significantly increased; adjuvant activity (IgG1) compared with Alum ([2]; Example 1, same test as E1): equivalent to that of Alum; adjuvant activity (IgG1) compared with Alum ([2]; Example 5): equivalent to or not less than that of Alum; anti-OVA-specific IgG1 subclass antibody production as compared to the OVA single administration group ([2]; Example 5, same manner as Example 1): significantly increased; adjuvant activity (IgG1) compared with Alum ([2]; Example 8): equivalent to or not less than that of Alum; anti-OVA-specific IgG1 subclass antibody production as compared to the OVA single administration group ([2]; Example 8, same manner as Example 7): significantly increased; allergy inducing activity as compared to aluminum hydroxide gel adjuvant [3]: lower allergy inducing activity; allergy inducing activity as compared to aluminum hydroxide gel adjuvant and Addavax [3]: lower allergy inducing activity
2 | CCCCCCCCCCCCCCCCCCC(CCCCCCCCCCCCCCCCCC)C(=O)N[C@@H](CC(C)C)C(=O)OC [SZ86, N-(2-octadecyleicosanoyl)-L-leucine methyl ester] | low allergy inducing activity | a significant increase in the anti-OVA-specific IgE antibody production was not observed | 
3 | CCCCCCCCCCCCCCCC(=O)N[C@@H](CC(C)C)C(=O)N(CC)CC [SZ92, N^2-hexadecanoyl-N^1,N^1-diethyl-L-leucinamide] | low allergy inducing activity | a significant increase in the anti-OVA-specific IgE antibody production was not observed | 
4 | CCCCCCCCCCCCCCCC(=O)N[C@@H](CC(C)C)C(=O)OCCCCCC [SZ97, N-hexadecanoyl-L-leucine hexyl ester] | low allergy inducing activity | a significant increase in the anti-OVA-specific IgE antibody production was not observed | 
5 | CCCCCCCCCCCCCCCC(=O)N[C@@H](CCCNC(=N)N)C(=O)OCCCCCC.Cl [SZ99, N^2-hexadecanoyl-L-arginine hexyl ester hydrochloride salt] | low allergy inducing activity | a significant increase in the anti-OVA-specific IgE antibody production was not observed | 
6 | CCCCCCCCCCCCCCCCCCCCCC(=O)N[C@@H](CCC(=O)O)C(=O)N(CC)CC [SZ106, N^2-docosanoyl-N^1,N^1-diethyl-L-glutamic acid 1-amide] | low allergy inducing activity | a significant increase in the anti-OVA-specific IgE antibody production was not observed | 
7 | CCCCCCCCCCCCCCCCCCCCCC(=O)NC(=N)NCCCCN.Cl [SZ108, N-docosanoylagmatine hydrochloride salt] | low allergy inducing activity | a significant increase in the anti-OVA-specific IgE antibody production was not observed | 
